From ChEMBL document CHEMBL5046315, “CRCM5484: A BET-BDII Selective Compound with Differential Anti-leukemic Drug Modulation” (J Med Chem, 2022)
The source made the active and inactive calls. The calls are words filed in the database; no cut-off is given here.

Assays:
MOLM-14 [1] = assay: Potentiation of luminespid-induced antileukemic activity against human MOLM-14 cells at 4.3 uM in presence of bone-marrow derived stromal cell-conditioned medium; type: functional, cell-based
U-937 [2] = assay: Potentiation of bortezomib-induced antileukemic activity against human U-937 cells at 4.3 uM in presence of bone-marrow derived stromal cell-conditioned medium; type: functional, cell-based
U-937 [3] = assay: Potentiation of crenolatinib-induced antileukemic activity against human U-937 cells at 4.3 uM in presence of bone-marrow derived stromal cell-conditioned medium; type: functional, cell-based
MOLM-14 [4] = assay: Potentiation of decitabine-induced antileukemic activity against human MOLM-14 cells at 4.3 uM in presence of bone-marrow derived stromal cell-conditioned medium; type: functional, cell-based
U-937 [5] = assay: Potentiation of everolimus-induced antileukemic activity against human U-937 cells at 4.3 uM in presence of bone-marrow derived stromal cell-conditioned medium; type: functional, cell-based
U-937 [6] = assay: Potentiation of -mastinib -induced antileukemic activity against human U-937 cells at 4.3 uM in presence of bone-marrow derived stromal cell-conditioned medium; type: functional, cell-based
CCRF-CEM [7] = assay: Potentiation of luminespid-induced antileukemic activity against human CCRF-CEM cells at 4.3 uM in presence of bone-marrow derived stromal cell-conditioned medium; type: functional, cell-based
[8] = system: Acute myeloid leukemic cell; assay: (§1) Potentiation of birinapant-induced antileukemic activity against patient derived mouse xenografted acute myeloid leukemic cells assessed as cell viability in absence of bone-marrow derived stromal cell-conditioned medium measured after 72 to 144 hrs by cell-titre glo luminescent assay; type: functional, cell-based; conditions: Homo sapiens, dose microM <=10, time lower […], time upper 144.0 hrs
CCRF-CEM [9] = assay: Potentiation of AGI-5198-induced antileukemic activity against human CCRF-CEM cells at 4.3 uM in presence of bone-marrow derived stromal cell-conditioned medium; type: functional, cell-based
U-937 [10] = assay: Potentiation of AT9283-induced antileukemic activity against human U-937 cells at 4.3 uM in presence of bone-marrow derived stromal cell-conditioned medium; type: functional, cell-based
MOLM-14 [11] = assay: Potentiation of VX680-induced antileukemic activity against human MOLM-14 cells at 4.3 uM in presence of bone-marrow derived stromal cell-conditioned medium; type: functional, cell-based
MOLM-14 [12] = assay: Potentiation of alisertib-induced antileukemic activity against human MOLM-14 cells at 4.3 uM in presence of bone-marrow derived stromal cell-conditioned medium; type: functional, cell-based
U-937 [13] = assay: Potentiation of ruxolitinib-induced antileukemic activity against human U-937 cells at 4.3 uM in presence of bone-marrow derived stromal cell-conditioned medium; type: functional, cell-based
CCRF-CEM [14] = assay: Potentiation of gefitinib-induced antileukemic activity against human CCRF-CEM cells at 4.3 uM in presence of bone-marrow derived stromal cell-conditioned medium; type: functional, cell-based
CCRF-CEM [15] = assay: Potentiation of SGI-1027-induced antileukemic activity against human CCRF-CEM cells at 4.3 uM in presence of bone-marrow derived stromal cell-conditioned medium; type: functional, cell-based
CCRF-CEM [16] = assay: Potentiation of docetaxel-induced antileukemic activity against human CCRF-CEM cells at 4.3 uM in presence of bone-marrow derived stromal cell-conditioned medium; type: functional, cell-based
CCRF-CEM [17] = assay: Potentiation of cladribine-induced antileukemic activity against human CCRF-CEM cells at 4.3 uM in presence of bone-marrow derived stromal cell-conditioned medium; type: functional, cell-based
[18] = system: Acute myeloid leukemic cell; assay: as §1, with “vorinostat-induced” for “birinapant-induced”, “viability at 0.16 to 10 uM” for “viability”, “presence” for “absence”; type: functional, cell-based; conditions: Homo sapiens, dose 0.16-10 µM, time lower […], time upper 144.0 hrs
U-937 [19] = assay: Potentiation of 17AAG-induced antileukemic activity against human U-937 cells at 4.3 uM in presence of bone-marrow derived stromal cell-conditioned medium; type: functional, cell-based
[20] = molecular target: T1, Bromodomain-containing protein 2 (Homo sapiens, UniProt P25440); assay: Inhibition of human partial length BRD2-BD2 (E348 to D455 residues) expressed in bacterial system at 1 uM by BROMOscan method relative to control
Target sequence in this assay (P25440 whole entry, looked up, the tested form may be a part): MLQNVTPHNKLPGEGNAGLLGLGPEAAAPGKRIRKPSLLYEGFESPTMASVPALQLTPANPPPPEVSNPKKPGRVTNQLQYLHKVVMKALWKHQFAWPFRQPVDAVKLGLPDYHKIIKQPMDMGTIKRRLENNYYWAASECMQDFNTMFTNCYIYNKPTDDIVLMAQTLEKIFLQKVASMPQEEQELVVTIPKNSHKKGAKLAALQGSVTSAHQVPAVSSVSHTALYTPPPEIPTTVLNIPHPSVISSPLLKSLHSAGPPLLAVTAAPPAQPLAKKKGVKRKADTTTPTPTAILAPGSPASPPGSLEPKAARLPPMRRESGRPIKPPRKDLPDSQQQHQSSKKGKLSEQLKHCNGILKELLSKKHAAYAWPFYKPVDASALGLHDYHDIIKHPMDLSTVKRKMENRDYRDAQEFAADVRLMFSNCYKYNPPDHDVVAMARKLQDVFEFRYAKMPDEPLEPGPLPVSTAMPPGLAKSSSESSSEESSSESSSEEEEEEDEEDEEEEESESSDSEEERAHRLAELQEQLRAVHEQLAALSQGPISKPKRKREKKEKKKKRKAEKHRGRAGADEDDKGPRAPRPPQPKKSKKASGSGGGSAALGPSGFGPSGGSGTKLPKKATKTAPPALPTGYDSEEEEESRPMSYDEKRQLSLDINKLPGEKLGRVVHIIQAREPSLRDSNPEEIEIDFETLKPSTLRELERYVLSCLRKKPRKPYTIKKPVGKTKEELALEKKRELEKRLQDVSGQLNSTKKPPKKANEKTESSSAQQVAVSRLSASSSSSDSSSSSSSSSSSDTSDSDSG

U-937 [21] = assay: Potentiation of vincristine-induced antileukemic activity against human U-937 cells at 4.3 uM in presence of bone-marrow derived stromal cell-conditioned medium; type: functional, cell-based
CCRF-CEM [22] = assay: Potentiation of SGI-1776-induced antileukemic activity against human CCRF-CEM cells at 4.3 uM in presence of bone-marrow derived stromal cell-conditioned medium; type: functional, cell-based
MOLM-14 [23] = assay: Potentiation of topotecan-induced antileukemic activity against human MOLM-14 cells at 4.3 uM in presence of bone-marrow derived stromal cell-conditioned medium; type: functional, cell-based
MOLM-14 [24] = assay: Potentiation of imatinib-induced antileukemic activity against human MOLM-14 cells at 4.3 uM in presence of bone-marrow derived stromal cell-conditioned medium; type: functional, cell-based
CCRF-CEM [25] = assay: Potentiation of VX680-induced antileukemic activity against human CCRF-CEM cells at 4.3 uM in presence of bone-marrow derived stromal cell-conditioned medium; type: functional, cell-based
CCRF-CEM [26] = assay: Potentiation of clofarabine-induced antileukemic activity against human CCRF-CEM cells at 4.3 uM in presence of bone-marrow derived stromal cell-conditioned medium; type: functional, cell-based
CCRF-CEM [27] = assay: Potentiation of seliciclib-induced antileukemic activity against human CCRF-CEM cells at 4.3 uM in presence of bone-marrow derived stromal cell-conditioned medium; type: functional, cell-based
MOLM-14 [28] = assay: Potentiation of idasanutlin-induced antileukemic activity against human MOLM-14 cells at 4.3 uM in presence of bone-marrow derived stromal cell-conditioned medium; type: functional, cell-based
MOLM-14 [29] = assay: Potentiation of daunorubicine-induced antileukemic activity against human MOLM-14 cells at 4.3 uM in presence of bone-marrow derived stromal cell-conditioned medium; type: functional, cell-based
U-937 [30] = assay: Potentiation of SGI-1776-induced antileukemic activity against human U-937 cells at 4.3 uM in presence of bone-marrow derived stromal cell-conditioned medium; type: functional, cell-based
CCRF-CEM [31] = assay: Potentiation of EPZ5676-induced antileukemic activity against human CCRF-CEM cells at 4.3 uM in presence of bone-marrow derived stromal cell-conditioned medium; type: functional, cell-based
MOLM-14 [32] = assay: Potentiation of cladribine-induced antileukemic activity against human MOLM-14 cells at 4.3 uM in presence of bone-marrow derived stromal cell-conditioned medium; type: functional, cell-based
U-937 [33] = assay: Potentiation of EPZ5676-induced antileukemic activity against human U-937 cells at 4.3 uM in presence of bone-marrow derived stromal cell-conditioned medium; type: functional, cell-based
MOLM-14 [34] = assay: Potentiation of prima1-induced antileukemic activity against human MOLM-14 cells at 4.3 uM in presence of bone-marrow derived stromal cell-conditioned medium; type: functional, cell-based
U-937 [35] = assay: Potentiation of MK2206-induced antileukemic activity against human U-937 cells at 4.3 uM in presence of bone-marrow derived stromal cell-conditioned medium; type: functional, cell-based
[36] = molecular target: T1, Bromodomain-containing protein 2; assay: Inhibition of BRD2-BD1 (unknown origin) incubated for 6 hrs by HTRF method
Target sequence in this assay (P25440 whole entry, the tested form may be a part): as the sequence (P25440 whole entry, looked up, the tested form may be a part) above

U-937 [37] = assay: Potentiation of quizartinib-induced antileukemic activity against human U-937 cells at 4.3 uM in presence of bone-marrow derived stromal cell-conditioned medium; type: functional, cell-based
MOLM-14 [38] = assay: Potentiation of docetaxel-induced antileukemic activity against human MOLM-14 cells at 4.3 uM in presence of bone-marrow derived stromal cell-conditioned medium; type: functional, cell-based
[39] = molecular target: T1, Bromodomain-containing protein 2; assay: Inhibition of BRD2-BD2 (unknown origin) incubated for 6 hrs by HTRF method
Target sequence in this assay (P25440 whole entry, the tested form may be a part): as the sequence (P25440 whole entry, looked up, the tested form may be a part) above

MOLM-14 [40] = assay: Potentiation of cyclopamine-induced antileukemic activity against human MOLM-14 cells at 4.3 uM in presence of bone-marrow derived stromal cell-conditioned medium; type: functional, cell-based

inhibition [20]: 37%
IC50 [36]: 4700 nM
IC50 [39]: 71 nM
SMILES: CC(=O)N1CCc2c(sc3nc(SCC(=O)Nc4cccnc4C)n(Cc4ccco4)c(=O)c23)C1
Activity (MOLM-14 [1]): inactive
Activity (U-937 [2]): inactive
Activity (U-937 [3]): inactive
Activity (MOLM-14 [4]): inactive
Activity (U-937 [5]): inactive
Activity (U-937 [6]): inactive
Activity (CCRF-CEM [7]): inactive
Activity [8]: Dose-Dependent Effect
Activity (CCRF-CEM [9]): inactive
Activity (U-937 [10]): inactive
Activity (MOLM-14 [11]): inactive
Activity (MOLM-14 [12]): inactive
Activity (U-937 [13]): inactive
Activity (CCRF-CEM [14]): inactive
Activity (CCRF-CEM [15]): inactive
Activity (CCRF-CEM [16]): inactive
Activity (CCRF-CEM [17]): inactive
Activity [18]: Active
Activity (U-937 [19]): inactive
Activity (U-937 [21]): inactive
Activity (CCRF-CEM [22]): inactive
Activity (MOLM-14 [23]): inactive
Activity (MOLM-14 [24]): inactive
Activity (CCRF-CEM [25]): inactive
Activity (CCRF-CEM [26]): inactive
Activity (CCRF-CEM [27]): inactive
Activity (MOLM-14 [28]): inactive
Activity (MOLM-14 [29]): inactive
Activity (U-937 [30]): inactive
Activity (CCRF-CEM [31]): inactive
Activity (MOLM-14 [32]): inactive
Activity (U-937 [33]): inactive
Activity (MOLM-14 [34]): inactive
Activity (U-937 [35]): inactive
Activity (U-937 [37]): inactive
Activity (MOLM-14 [38]): inactive
Activity (MOLM-14 [40]): inactive
